Data taken from PMC12051620, “Molecular basis underlying the specificity of an antagonist AA92593 for mammalian melanopsins” (The Journal of Biological Chemistry, 2025).

Key:
Assay in all cases: GsX GloSensor assay with Gsα/q11
Format in all cases: cell-based
[1] = tested on: human melanopsin L207^5.42A mutant; conditions: 16.7 μM AA92593, COS-1 cells
Procedure: (§1) Based on the docking and MD simulations of human melanopsin with AA92593, importance of the interactions of Trp-189^ECL2 and Leu-207^5.42 with the antagonist was experimentally examined using the GsX GloSensor assay. To validate the interaction between Trp-189^ECL2 and AA92593, substitutions of W189^ECL2F, W189^ECL2I, or W189^ECL2V in human melanopsin were tested. […] To assess the importance of Leu-207^5.42 in the interaction with AA92593, substitutions L207^5.42V, L207^5.42A, or L207^5.42F in human melanopsin were tested. […] Of note, the L207^5.42F substitution enhanced the sensitivity (∼8%) of human melanopsin to AA92593 (Fig. 5F), although the difference was not statistically significant (Fig. 5H). Dose-dependent curve of reduction in the GsX GloSensor signals of the L207^5.42F was shifted by ∼0.6 μM from the curve of WT (Fig. 5I). The introduction of a Phe residue at position 207^5.42 caused additional interactions between the phenyl ring in Phe-207^5.42 and some functional groups in AA92593. The marked changes in the antagonistic effects of Trp-189^ECL2 and Leu-207^5.42 substitutions are consistent with our molecular simulations, showing that these residues are located at the antagonist-binding site (Fig. 4B).
(§2) For GloSensor assay, opsins, GloSensor assay sensor (coded by pGlo-22F), and NanoBiT-tagged G proteins were transiently expressed in COS-1 cells (kindly provided from Dr David Farrens, Oregon Health and Science University) using PEI as described previously ([24], [52]). For the GsX GloSensor assay ([12], [13]), each well of a 96-well assay plate (Corning) was transfected with 50 ng opsin plasmid, 16.7 ng G protein plasmid, 50 ng pGlo-22F plasmid (Promega), and 500 ng PEI in 25 μl Opti-mem and 75 μl Dulbecco's modified Eagle's medium (D-MEM). For NanoBiT G protein dissociation assay, each well of a 96-well assay plate was transfected with 50 ng opsin plasmid, 5 ng Lg-BiT inserted Gqα (Gqα-LgBiT) plasmid, 25 ng Gβ1 plasmid, 25 ng Sm-BiT fused Gγ2 plasmid, 5 ng RIC8A plasmid, and 500 ng PEI in 25 μl Opti-mem and 75 μl D-MEM. For GFP-fluorescence microscopy, a 35-mm cell culture dish (IWAKI) was transfected with 2 μg melanopsin-GFP plasmid and 8 μg PEI in 400 μl Opti-mem and 1.2 ml D-MEM. For melanopsin purification, ten of 100-mm cell culture dishes (NEST) were transfected with 150 μg melanopsin plasmid and 500 μg PEI in 25 ml Opti mem and 75 ml D-MEM.
(§3) The transfected COS-1 cells were incubated at 37 °C, 5% CO2 for 2 days, and the medium was aspirated and exchanged with 50 μl of HBSS (145 mM NaCl, 10 mM D-glucose, 5 mM KCl, 1 mM MgCl2, 1.7 mM CaCl2, 1.5 mM NaHCO3, 10 mM Hepes, pH 7.4), containing 33.3, 20, 10, 2, 0.2, 0.02, 0.002, or 0 μM AA92593, 0.5% dimetyl sulfoxide (DMSO), and 4% (vol/vol) GloSensor cAMP reagent stock solution. Under our experimental conditions, >50 μM AA92593 was not fully dissolved in the HBSS solution, and we set maximal concentration of AA92593 (Glixx Laboratories) at 33.3 μM (final concentration of 16.7 μM, see below). Then, the cells were incubated at room temperature for 1 h, and luminescence changes were monitored. After incubation of the cells with AA92593, luminescence measurement was interrupted, the plate was ejected, and the cells were added with 50 μl of HBSS containing 0.2 μM 9-cis-retinal. The final exogenous AA92593 concentrations were 16.7, 10, 5, 1, 0.1, 0.01, 0.001, or 0 μM, and retinal concentration was 0.1 μM. Twenty millimolars of stock solution of AA92593 was prepared in DMSO, and final concentration of DMSO was kept at 0.25% regardless final AA92593 concentration. Then, the cells were incubated at room temperature for 1 h. Luminescence was measured using GM-2000 or GM-3510 microplate reader (Promega). Luminescence level of each well was measured every 30 s with integration time of 0.6 to 0.9 s. […]

[2] = target: T1, human melanopsin L207^5.42F mutant (Homo sapiens, UniProt Q9UHM6, L239F)
T1 construct: the C-terminal amino acid residues (94, 140, 200, 214, 296, and 308 residues); expressed in transfected cells; host or cells: COS-1
T1 sequence (Q9UHM6 1-384 L239F limits assumed): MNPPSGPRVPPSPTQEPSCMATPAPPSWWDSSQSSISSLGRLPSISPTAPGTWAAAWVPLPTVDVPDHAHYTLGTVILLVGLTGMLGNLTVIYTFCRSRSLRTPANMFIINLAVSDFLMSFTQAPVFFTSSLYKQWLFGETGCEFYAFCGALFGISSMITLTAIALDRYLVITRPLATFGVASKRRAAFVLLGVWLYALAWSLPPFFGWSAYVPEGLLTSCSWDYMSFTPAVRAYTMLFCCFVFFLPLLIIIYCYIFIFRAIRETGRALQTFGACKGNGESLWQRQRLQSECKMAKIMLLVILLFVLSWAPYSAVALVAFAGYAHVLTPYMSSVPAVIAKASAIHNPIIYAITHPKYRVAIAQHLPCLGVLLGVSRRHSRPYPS
Procedure: as §1, §2, §3

[3] = tested on: human melanopsin L207^5.42V mutant; conditions: 16.7 μM AA92593, COS-1 cells
Procedure: as §1, §2, §3

[4] = tested on: human melanopsin W189^ECL2F mutant; conditions: 16.7 μM AA92593, COS-1 cells
Procedure: as §1, §2, §3

[5] = target: T2, human melanopsin W189^ECL2I mutant (Homo sapiens, UniProt Q9UHM6, W223I); conditions: 16.7 μM AA92593, COS-1 cells
T2 construct: expressed in transfected cells; host or cells: COS-1
T2 sequence (Q9UHM6 1-384 W223I limits assumed): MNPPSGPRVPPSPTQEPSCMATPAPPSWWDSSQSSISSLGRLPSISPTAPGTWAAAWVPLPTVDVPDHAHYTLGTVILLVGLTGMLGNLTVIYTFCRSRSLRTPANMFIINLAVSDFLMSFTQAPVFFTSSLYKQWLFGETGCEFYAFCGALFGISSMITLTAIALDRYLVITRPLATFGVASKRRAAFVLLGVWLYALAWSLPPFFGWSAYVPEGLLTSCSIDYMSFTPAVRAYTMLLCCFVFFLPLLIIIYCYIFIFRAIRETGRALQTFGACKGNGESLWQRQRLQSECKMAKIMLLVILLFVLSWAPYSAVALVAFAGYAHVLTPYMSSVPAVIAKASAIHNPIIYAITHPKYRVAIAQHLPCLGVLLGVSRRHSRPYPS
Procedure: as §1, §2, §3

[6] = target: T3, human melanopsin W189^ECL2V mutant (Homo sapiens, UniProt Q9UHM6, W223V); conditions: 16.7 μM AA92593, COS-1 cells
T3 construct: expressed in transfected cells; host or cells: COS-1
T3 sequence (Q9UHM6 1-384 W223V limits assumed): as the sequence (Q9UHM6 1-384 W223I limits assumed) above, with I223V counted along it
Procedure: as §1, §2, §3

[7] = relative peak cAMP response vs no AA92593

COc1ccc(S(=O)(=O)N2CCCCC2)cc1C [AA92593]
reduced antagonistic effect of AA92593 vs WT [1]: ~12%
Hill fitting parameter rate of dose-response curve [2]: −0.88 ± 0.29
enhanced sensitivity to AA92593 vs WT ([2]; 16.7 μM AA92593, COS-1 cells, Gsα/q11, difference not statistically significant): ~8%
IC50 ([2]; COS-1 cells, n = 3, read-out: IC50, reduction in peak cAMP responses upon Gsα/q11 activation): 350 ± 160 nM
Hill fitting parameter max of dose-response curve [2, 7]: 98.88 ± 4.88
Hill fitting parameter min of dose-response curve [2, 7]: 3.15 ± 9.9
reduced antagonistic effect of AA92593 vs WT [3]: ~15%
decrease in sensitivity to AA92593 vs WT [4]: ~60%
inhibitory effect of AA92593 compared to WT [5]: significantly weaker
inhibitory effect of AA92593 compared to WT [6]: significantly weaker
